Source: PMC9127186, “Molecular Basis Underlying Hepatobiliary and Renal Excretion of Phenolic Acids of Salvia miltiorrhiza Roots (Danshen)” (Frontiers in Pharmacology, 2022)

Legend:
rat Octn2 = molecular target: T1, rat Octn2 (Rattus norvegicus, UniProt O70594); conditions: 10 min, 100 μM
T1 sequence (O70594 1-557): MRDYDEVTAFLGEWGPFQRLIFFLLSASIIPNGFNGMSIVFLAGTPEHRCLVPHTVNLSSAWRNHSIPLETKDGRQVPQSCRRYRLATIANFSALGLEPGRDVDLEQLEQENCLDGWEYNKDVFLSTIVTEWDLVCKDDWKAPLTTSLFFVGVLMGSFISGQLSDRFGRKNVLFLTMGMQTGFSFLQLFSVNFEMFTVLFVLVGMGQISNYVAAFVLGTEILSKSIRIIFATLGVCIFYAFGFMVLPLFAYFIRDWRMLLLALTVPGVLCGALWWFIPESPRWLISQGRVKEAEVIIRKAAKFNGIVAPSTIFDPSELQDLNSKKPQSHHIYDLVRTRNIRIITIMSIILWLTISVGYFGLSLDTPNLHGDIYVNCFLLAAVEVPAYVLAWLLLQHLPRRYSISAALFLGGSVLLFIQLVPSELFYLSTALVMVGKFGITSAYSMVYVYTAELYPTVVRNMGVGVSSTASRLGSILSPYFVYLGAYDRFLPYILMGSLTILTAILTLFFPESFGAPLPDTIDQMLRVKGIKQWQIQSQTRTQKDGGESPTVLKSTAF

rat Ntcp = molecular target: T2, rat Ntcp (Rattus norvegicus, UniProt P26435); conditions: 10 min, 100 μM
T2 sequence (P26435 1-362): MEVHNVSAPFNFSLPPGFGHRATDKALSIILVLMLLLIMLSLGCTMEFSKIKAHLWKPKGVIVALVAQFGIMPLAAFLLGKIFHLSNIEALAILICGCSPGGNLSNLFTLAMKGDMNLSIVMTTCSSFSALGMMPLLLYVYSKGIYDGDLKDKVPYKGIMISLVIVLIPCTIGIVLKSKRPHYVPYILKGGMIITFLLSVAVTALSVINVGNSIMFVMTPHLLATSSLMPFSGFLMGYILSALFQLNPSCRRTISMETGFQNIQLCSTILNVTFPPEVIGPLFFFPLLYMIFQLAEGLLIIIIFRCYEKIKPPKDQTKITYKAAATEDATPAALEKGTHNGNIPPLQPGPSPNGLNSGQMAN

human PEPT2 = molecular target: T3, human PEPT2 (Homo sapiens, UniProt Q16348); conditions: 10 min, 100 μM, pH 6
T3 sequence (Q16348 1-729): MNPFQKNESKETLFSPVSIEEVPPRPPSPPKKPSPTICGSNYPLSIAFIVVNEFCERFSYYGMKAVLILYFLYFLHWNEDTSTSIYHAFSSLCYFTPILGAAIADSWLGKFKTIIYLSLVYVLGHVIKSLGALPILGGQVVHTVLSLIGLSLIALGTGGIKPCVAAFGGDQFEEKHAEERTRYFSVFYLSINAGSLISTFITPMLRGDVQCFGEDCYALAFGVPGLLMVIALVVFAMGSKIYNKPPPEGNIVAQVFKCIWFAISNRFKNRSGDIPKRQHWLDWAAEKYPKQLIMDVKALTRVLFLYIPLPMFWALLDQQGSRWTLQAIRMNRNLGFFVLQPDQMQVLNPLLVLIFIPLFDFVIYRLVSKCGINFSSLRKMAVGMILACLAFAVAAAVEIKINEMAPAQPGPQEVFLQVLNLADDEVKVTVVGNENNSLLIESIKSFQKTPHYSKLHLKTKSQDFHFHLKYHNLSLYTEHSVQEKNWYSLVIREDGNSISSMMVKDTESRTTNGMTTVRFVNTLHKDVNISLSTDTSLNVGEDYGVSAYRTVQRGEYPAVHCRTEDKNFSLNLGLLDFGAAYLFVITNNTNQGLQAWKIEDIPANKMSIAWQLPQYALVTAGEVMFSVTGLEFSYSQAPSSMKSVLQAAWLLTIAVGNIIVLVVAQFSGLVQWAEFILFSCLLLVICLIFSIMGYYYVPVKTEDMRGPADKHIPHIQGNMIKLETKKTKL

rat Oct2 = molecular target: T4, rat Oct2 (Rattus norvegicus, UniProt Q9R0W2); conditions: 10 min, 100 μM
T4 sequence (Q9R0W2 1-555): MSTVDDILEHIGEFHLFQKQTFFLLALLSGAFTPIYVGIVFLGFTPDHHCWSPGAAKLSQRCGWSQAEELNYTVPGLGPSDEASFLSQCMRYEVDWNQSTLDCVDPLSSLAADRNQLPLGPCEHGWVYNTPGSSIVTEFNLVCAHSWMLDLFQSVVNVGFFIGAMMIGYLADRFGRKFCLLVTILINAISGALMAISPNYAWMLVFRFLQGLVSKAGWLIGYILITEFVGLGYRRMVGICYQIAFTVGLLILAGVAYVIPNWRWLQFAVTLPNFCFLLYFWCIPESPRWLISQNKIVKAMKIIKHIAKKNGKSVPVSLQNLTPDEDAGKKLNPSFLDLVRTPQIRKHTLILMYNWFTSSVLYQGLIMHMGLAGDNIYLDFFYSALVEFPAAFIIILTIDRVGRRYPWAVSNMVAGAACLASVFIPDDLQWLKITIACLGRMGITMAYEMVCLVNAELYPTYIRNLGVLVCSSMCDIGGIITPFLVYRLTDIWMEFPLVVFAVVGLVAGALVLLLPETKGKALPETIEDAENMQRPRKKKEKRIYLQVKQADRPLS

rat Pept2 = molecular target: T5, rat Pept2 (Rattus norvegicus, UniProt Q63424); conditions: 10 min, 100 μM, pH 6
T5 sequence (Q63424 1-729): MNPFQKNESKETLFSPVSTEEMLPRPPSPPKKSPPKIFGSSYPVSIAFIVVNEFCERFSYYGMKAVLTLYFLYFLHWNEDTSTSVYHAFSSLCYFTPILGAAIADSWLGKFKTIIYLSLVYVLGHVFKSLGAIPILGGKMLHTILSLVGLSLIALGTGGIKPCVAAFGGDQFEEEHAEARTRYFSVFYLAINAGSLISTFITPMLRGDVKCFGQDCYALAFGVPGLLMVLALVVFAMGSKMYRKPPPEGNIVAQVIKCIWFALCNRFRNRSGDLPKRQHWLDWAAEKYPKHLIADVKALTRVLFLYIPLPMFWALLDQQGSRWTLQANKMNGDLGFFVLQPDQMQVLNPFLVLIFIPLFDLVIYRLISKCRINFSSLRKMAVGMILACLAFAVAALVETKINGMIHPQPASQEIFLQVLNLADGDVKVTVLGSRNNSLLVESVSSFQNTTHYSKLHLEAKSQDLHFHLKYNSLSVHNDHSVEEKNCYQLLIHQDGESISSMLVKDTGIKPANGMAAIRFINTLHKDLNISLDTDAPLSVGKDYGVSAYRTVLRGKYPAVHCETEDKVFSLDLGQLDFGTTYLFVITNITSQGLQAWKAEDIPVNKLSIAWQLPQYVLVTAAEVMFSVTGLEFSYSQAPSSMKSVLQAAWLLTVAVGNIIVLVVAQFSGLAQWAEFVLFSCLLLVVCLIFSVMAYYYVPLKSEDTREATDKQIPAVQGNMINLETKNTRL

For O=C(/C=C/c1ccc(O)c(O)c1)O[C@H](Cc1ccc(O)c(O)c1)C(=O)O [Rosmarinic acid, rosmarinic acid], the “TransportTC/TransportMC ratio (net transport ratio)” value (from here on “TransportTC/TransportMC ratio”) (rat Octn2) was 1.14 ± 0.04, the “TransportTC/TransportMC ratio” value (rat Ntcp) was 1.68 ± 0.25 and the “TransportTC/TransportMC ratio” value (human PEPT2) was 1.12 ± 0.22. For the same compound, the “TransportTC/TransportMC ratio” value (rat Oct2) was 0.75 ± 0.32 and the “TransportTC/TransportMC ratio” value (rat Pept2) was 0.84 ± 0.17.

With O=C(/C=C/c1ccc(O)c(O)c1/C=C/c1ccc(O)c(O)c1)O[C@H](Cc1ccc(O)c(O)c1)C(=O)O [Salvianolic acid A, salvianolic acid A] the “TransportTC/TransportMC ratio” value (rat Octn2) was 0.95 ± 0.44, the “TransportTC/TransportMC ratio” value (rat Ntcp) was 0.84 ± 0.13 and the “TransportTC/TransportMC ratio” value (human PEPT2) was 1.14 ± 0.31. For the same compound, the “TransportTC/TransportMC ratio” value (rat Oct2) was 0.94 ± 0.33 and the “TransportTC/TransportMC ratio” value (rat Pept2) was 0.84 ± 0.19.
